From patent US10959432B2, “Microbiocidal oxadiazole derivatives” (Syngenta Participations AG, priority 2016, dated 2021)

Columns and labels:
Type in all cases: in vivo
Phakopsora pachyrhizi = assay: Fungicidal activity against Phakopsora pachyrhizi / soybean / leaf disc preventative (Asian soybean rust); details: foliar, 200 ppm in the applied formulation, soybean leaf disks, preventative (inoculated one day after application), assessed 12 to 14 days after application, read-out: disease control compared to untreated control leaf disks
Summary of the method: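 Preventative test: compound applied to soybean leaf discs a day before spore inoculation of the lower surface. Discs kept at 20° C and 75% rh, first 24-36 h in darkness, then under 12 h light/day; disease control relative to untreated discs rated 12 to 14 days post-application.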

Uromyces viciae-fabae = assay: Fungicidal activity against Uromyces viciae-fabae / field bean / leaf disc preventative (faba-bean rust); details: foliar, 288 h, 100 ppm in the applied formulation, field bean leaf discs, preventative (inoculated two hours after application), assessed 12 days after application, read-out: disease control compared to untreated control leaf discs
Procedure: Leaf disks or leaf segments of various plant species are cut from plants grown in a greenhouse. The cut leaf disks or segments are placed in multiwell plates (24-well format) onto water agar. The leaf disks are sprayed with a test solution before (preventative) or after (curative) inoculation. Compounds to be tested are prepared as DMSO solutions (max. 10 mg/ml) which are diluted to the appropriate concentration with 0.025% Tween20 just before spraying. The inoculated leaf disks or segments are incubated under defined conditions (temperature, relative humidity, light, etc.) according to the respective test system. A single evaluation of disease level is carried out 3 to 14 days after inoculation, depending on the pathosystem. Percent disease control relative to the untreated check leaf disks or segments is then calculated. General Examples of Liquid Culture Tests in Well Plates:
Example 5: Fungicidal Activity Against Uromyces viciae-fabae/Field Bean/Leaf Disc Preventative (Faba-Bean Rust)
Field bean leaf discs are placed on water agar in multiwell plates (96-well format) and 10 μl of the formulated test compound diluted in acetone and a spreader pipetted onto the leaf disc. Two hours after application leaf discs are inoculated by spraying a spore suspension on the lower leaf surface. The leaf discs are incubated in a climate cabinet at 22° C. with 18 hour day and 70% relative humidity. The activity of a compound is assessed as percent disease control compared to untreated when an appropriate level of disease damage appears in untreated check leaf disks (12 days after application).
The following compounds at 100 ppm in the applied formulation give at least 80% disease control in this test when compared to untreated control leaf discs under the same conditions, which show extensive disease development.

[1] = tested on: Puccinia recondita f. sp. tritici; assay: Fungicidal activity against Puccinia recondita f. sp. tritici / wheat / leaf disc preventative (brown rust); details: foliar, 200 ppm in the applied formulation, wheat leaf segments cv. Kanzler, preventative (inoculated 1 day after application), assessed 7 to 9 days after application, read-out: disease control compared to untreated control leaf disks
Summary of the method: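 Preventative leaf-segment test: compound sprayed at 200 ppm onto wheat (cv. Kanzler) segments, brown rust spores applied 1 day after. Kept at 19C and 75% rh under 12 h light/dark cycles; disease control versus untreated check read 7 to 9 days post-application.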

Row | Compound | pest or weed control at 200 ppm (Phakopsora pachyrhizi) | pest or weed control at 100 ppm (Uromyces viciae-fabae) | pest or weed control at 200 ppm [1]
1 | O=C(Nc1ccc(N2CCOCC2)cc1)c1ccc(-c2noc(C(F)(F)F)n2)cc1 [Compound 4a.12, N-(4-morpholinophenyl)-4-[5-(trifluoromethyl)-1,2,4-oxadiazol-3-yl]benzamide] | ≥ 80% | ≥ 80% | –
2 | C[C@@H](NC(=O)c1ccc(-c2noc(C(F)(F)F)n2)cc1)C1CCCCC1 [Compound 2a.8, N-[(1R)-1-cyclohexylethyl]-4-[5-(trifluoromethyl)-1,2,4-oxadiazol-3-yl]benzamide] | ≥ 80% | ≥ 80% | –
3 | O=C(NCCCn1ccnc1)c1ccc(-c2noc(C(F)(F)F)n2)cc1F [Compound 5b.12, 2-fluoro-N-(3-imidazol-1-ylpropyl)-4-[5-(trifluoromethyl)-1,2,4-oxadiazol-3-yl]benzamide] | ≥ 80% | ≥ 80% | –
4 | O=C(Nc1ccc(Cl)cc1)c1ccc(-c2noc(C(F)(F)F)n2)cc1 [Compound 4a.6, N-(4-chlorophenyl)-4-[5-(trifluoromethyl)-1,2,4-oxadiazol-3-yl]benzamide] | ≥ 80% | ≥ 80% | –
5 | O=C(NC1CCSC1)c1ccc(-c2noc(C(F)(F)F)n2)cc1F (stereo not drawn) [Compound 1b.11, 2-fluoro-N-tetrahydrothiophen-3-yl-4-[5-(trifluoromethyl)-1,2,4-oxadiazol-3-yl]benzamide] | – | ≥ 80% | ≥ 80%
6 | COc1ccc(CNC(=O)c2ccc(-c3noc(C(F)(F)F)n3)cc2F)c(OC)c1 [Compound 4b.14, N-[(2,4-dimethoxyphenyl)methyl]-2-fluoro-4-[5-(trifluoromethyl)-1,2,4-oxadiazol-3-yl]benzamide] | – | ≥ 80% | ≥ 80%
7 | O=C(N[C@H]1CCN(Cc2ccccc2)C1)c1ccc(-c2noc(C(F)(F)F)n2)cc1 [Compound 1a.6, N-[(3S)-1-benzylpyrrolidin-3-yl]-4-[5-(trifluoromethyl)-1,2,4-oxadiazol-3-yl]benzamide] | – | ≥ 80% | ≥ 80%
8 | O=C(NC1CCCCCCC1)c1ccc(-c2noc(C(F)(F)F)n2)cc1 [Compound 2a.5, N-cyclooctyl-4-[5-(trifluoromethyl)-1,2,4-oxadiazol-3-yl]benzamide] | ≥ 80% | ≥ 80% | –
9 | CCc1cccc(NC(=O)c2ccc(-c3noc(C(F)(F)F)n3)cc2)c1 [Compound 4a.10, N-(3-ethylphenyl)-4-[5-(trifluoromethyl)-1,2,4-oxadiazol-3-yl]benzamide] | ≥ 80% | ≥ 80% | –
10 | CCOC(=O)N1CCC(NC(=O)c2ccc(-c3noc(C(F)(F)F)n3)cc2F)CC1 [Compound 1b.4, ethyl 4-[[2-fluoro-4-[5-(trifluoromethyl)-1,2,4-oxadiazol-3-yl]benzoyl]amino]piperidine-1-carbonylate] | – | ≥ 80% | ≥ 80%
11 | O=C(NCC1CC(F)(F)C1(F)F)c1ccc(-c2noc(C(F)(F)F)n2)cc1Cl (stereo not drawn) [Compound 2b.14, 2-chloro-N-[(2,2,3,3-tetrafluorocyclo-butyl)methyl]-4-[5-(trifluoromethyl)-1,2,4-oxadiazol-3-yl]benzamide] | – | ≥ 80% | ≥ 80%
12 | CC1CCCC(NC(=O)c2ccc(-c3noc(C(F)(F)F)n3)cc2)C1 (stereo not drawn) [Compound 2a.2, N-(3-methylcyclohexyl)-4-[5-(trifluoromethyl)-1,2,4-oxadiazol-3-yl]benzamide] | ≥ 80% | ≥ 80% | –
13 | O=C(Nc1ccccc1)c1ccc(-c2noc(C(F)(F)F)n2)cc1F [Compound 4b.12, 2-fluoro-N-phenyl-4-[5-(trifluoromethyl)-1,2,4-oxadiazol-3-yl]benzamide] | ≥ 80% | ≥ 80% | –
14 | CN(C(=O)c1ccc(-c2noc(C(F)(F)F)n2)cc1F)C1CCSC1 (stereo not drawn) [Compound 1b.8, 2-fluoro-N-methyl-N-tetrahydrothiophen-3-yl-4-[5-(trifluoromethyl)-1,2,4-oxadiazol-3-yl]benzamide] | – | ≥ 80% | ≥ 80%
15 | CC(C)(C)c1cc(NC(=O)c2ccc(-c3noc(C(F)(F)F)n3)cc2)[nH]n1 [Compound 5a.2, N-(3-tert-butyl-1H-pyrazol-5-yl)-4-[5-(trifluoromethyl)-1,2,4-oxadiazol-3-yl]benzamide] | ≥ 80% | ≥ 80% | –
16 | O=C(NC1(C2CC2)CC1)c1ccc(-c2noc(C(F)(F)F)n2)cc1Cl [Compound 2b.16, 2-chloro-N-(1-cyclopropylcyclo-propyl)-4-[5-(trifluoromethyl)-1,2,4-oxadiazol-3-yl]benzamide] | – | ≥ 80% | ≥ 80%
17 | CC(C)(C)c1cc(NC(=O)c2ccc(-c3noc(C(F)(F)F)n3)cc2F)[nH]n1 [Compound 5b.6, N-(3-tert-butyl-1H-pyrazol-5-yl)-2-fluoro-4-[5-(trifluoromethyl)-1,2,4-oxadiazol-3-yl]benzamide] | ≥ 80% | ≥ 80% | –
18 | O=C(Nc1ccccc1F)c1ccc(-c2noc(C(F)(F)F)n2)cc1 [Compound 4a.7, N-(2-fluorophenyl)-4-[5-(trifluoromethyl)-1,2,4-oxadiazol-3-yl]benzamide] | ≥ 80% | ≥ 80% | –
19 | CC1CCCC(NC(=O)c2ccc(-c3noc(C(F)(F)F)n3)cc2F)C1 (stereo not drawn) [Compound 2b.10, 2-fluoro-N-(3-methylcyclohexyl)-4-[5-(trifluoromethyl)-1,2,4-oxadiazol-3-yl]benzamide] | – | ≥ 80% | ≥ 80%
20 | O=C(NCc1ccc(F)c(Br)c1)c1ccc(-c2noc(C(F)(F)F)n2)cc1F [Compound 4b.13, N-[(3-bromo-4-fluoro-phenyl)methyl]-2-fluoro-4-[5-(trifluoromethyl)-1,2,4-oxadiazol-3-yl]benzamide] | – | ≥ 80% | ≥ 80%
21 | O=C(NC1CC1c1ccccc1)c1ccc(-c2noc(C(F)(F)F)n2)cc1F (stereo not drawn) [Compound 2b.7, 2-fluoro-N-(2-phenylcyclopropyl)-4-[5-(trifluoromethyl)-1,2,4-oxadiazol-3-yl]benzamide] | ≥ 80% | ≥ 80% | –
22 | O=C(Nc1ccc(F)cc1)c1ccc(-c2noc(C(F)(F)F)n2)cc1 [Compound 4a.8, N-(4-fluorophenyl)-4-[5-(trifluoromethyl)-1,2,4-oxadiazol-3-yl]benzamide] | ≥ 80% | ≥ 80% | –
23 | O=C(Nc1cccc(C(F)(F)F)c1)c1ccc(-c2noc(C(F)(F)F)n2)cc1 [Compound 4a.9, 4-[5-(trifluoromethyl)-1,2,4-oxadiazol-3-yl]-N-[3-(trifluoromethyl)phenyl]benzamide] | ≥ 80% | ≥ 80% | –
24 | Cc1ccc(C)c(CNC(=O)c2ccc(-c3noc(C(F)(F)F)n3)cc2)c1 [Compound 4a.11, N-[(2,5-dimethylphenyl)methyl]-4-[5-(trifluoromethyl)-1,2,4-oxadiazol-3-yl]benzamide] | ≥ 80% | ≥ 80% | –
